Reference: patent US20030073850A1, “4-Imidazole derivatives of benzyl and restricted benzyl sulfonamides, sulfamides, ureas, carbamates, and amides and their use” (priority 1998, published 2003)
pKi: −log10 of the molar value.

Key:
[1] = tested on: anesthetized dogs; test: Urethral pressure profile in anesthetized dogs; format: in vivo, dog; details: increasing iv doses, FIG. 1
Description: Dogs instrumented and anesthetized as decribed above were placed in left lateral recumbency and a dual pressure sensor catheter (SPC-771, Millar Instruments, Houston, Tex.) was inserted into the urethra and advanced into the bladder. The proximal pressure sensor was interfaced to a M12 computerized data acquisition system for the measurement of lower urinary tract pressures. At a resting intravesical pressure of approximately 5 cm of H2O, urethral pressure was measured from the sensor as the catheter was withdrawn using a modified syringe pump (Model 22, Harvard Apparatus, South Natick, Mass.) at its maximal rate of 0.83 mm/sec. Measurement from the proximal sensor allowed easy reinsertion as the distal 5 cm of the catheter remains in the urethra after the total profile has been obtained. Three resting urethral pressure profiles were obtained at 5 minute intervals before dosing, then a single profile was initiated 30 sec after each increasing iv dose during the time corresponding to the maximum arterial pressure effects of that dose. The increase in arterial pressure seen after each agonist dose was allowed to return to baseline before the next dose was given.

[2] = target: T1, α1b (hamster receptor expressed in mouse fibroblasts) (Mesocricetus auratus, UniProt P18841); test: Radioligand binding, [3H]-prazosin, α1b
T1 construct: expressed in transfected cells; host or cells: mouse fibroblasts
T1 sequence (P18841 1-515): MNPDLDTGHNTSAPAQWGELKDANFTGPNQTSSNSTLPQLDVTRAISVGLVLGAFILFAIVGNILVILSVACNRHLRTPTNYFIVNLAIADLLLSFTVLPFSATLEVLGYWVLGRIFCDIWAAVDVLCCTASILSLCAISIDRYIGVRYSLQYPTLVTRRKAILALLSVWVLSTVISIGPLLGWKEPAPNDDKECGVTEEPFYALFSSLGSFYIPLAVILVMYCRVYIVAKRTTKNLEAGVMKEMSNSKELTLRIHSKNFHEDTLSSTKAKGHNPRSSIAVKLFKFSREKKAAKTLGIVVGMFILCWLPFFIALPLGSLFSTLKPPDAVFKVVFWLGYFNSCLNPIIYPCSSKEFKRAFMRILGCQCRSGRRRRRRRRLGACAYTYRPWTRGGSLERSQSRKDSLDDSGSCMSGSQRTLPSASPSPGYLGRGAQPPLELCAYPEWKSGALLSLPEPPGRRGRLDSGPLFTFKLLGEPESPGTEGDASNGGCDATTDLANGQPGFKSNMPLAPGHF
How it was run: (§1)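 [3H]-prazosin radioligand displacement; α1A from rat submaxillary gland tissue, α1b hamster and α1d rat receptors each expressed in mouse fibroblasts.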

[3] = target: T2, α1d (rat receptor expressed in mouse fibroblasts) (Rattus norvegicus, UniProt P23944); test: Radioligand binding, [3H]-prazosin, α1d
T2 construct: expressed in transfected cells; host or cells: mouse fibroblasts
T2 sequence (P23944 1-561): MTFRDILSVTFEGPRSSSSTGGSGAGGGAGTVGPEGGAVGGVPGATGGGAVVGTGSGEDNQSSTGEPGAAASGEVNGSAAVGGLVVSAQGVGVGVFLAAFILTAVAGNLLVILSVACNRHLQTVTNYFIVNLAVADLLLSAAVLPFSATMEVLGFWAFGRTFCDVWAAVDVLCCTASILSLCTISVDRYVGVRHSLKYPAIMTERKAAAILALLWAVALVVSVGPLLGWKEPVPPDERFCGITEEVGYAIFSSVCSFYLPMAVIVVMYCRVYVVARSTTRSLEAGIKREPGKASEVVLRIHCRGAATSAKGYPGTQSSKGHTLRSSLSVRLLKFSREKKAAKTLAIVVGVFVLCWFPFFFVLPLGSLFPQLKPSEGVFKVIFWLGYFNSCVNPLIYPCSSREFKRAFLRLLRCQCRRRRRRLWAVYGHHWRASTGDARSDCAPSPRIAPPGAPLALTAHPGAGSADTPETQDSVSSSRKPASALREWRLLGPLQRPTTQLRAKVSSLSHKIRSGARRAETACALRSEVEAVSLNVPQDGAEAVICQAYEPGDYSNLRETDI
How it was run: as §1

[4] = target: T3, α1B (rat spleen) (Rattus norvegicus, UniProt P15823); test: Agonist tissue response, contraction of rat spleen; format: biochemical; details: read-out: Agonist Tissue Response (pD2) α1B (rat spleen) (converted)
T3 construct: α1B (rat spleen) and α1D (rat aorta) receptors; from tissue; host or cells: rat spleen
T3 sequence (P15823 1-515): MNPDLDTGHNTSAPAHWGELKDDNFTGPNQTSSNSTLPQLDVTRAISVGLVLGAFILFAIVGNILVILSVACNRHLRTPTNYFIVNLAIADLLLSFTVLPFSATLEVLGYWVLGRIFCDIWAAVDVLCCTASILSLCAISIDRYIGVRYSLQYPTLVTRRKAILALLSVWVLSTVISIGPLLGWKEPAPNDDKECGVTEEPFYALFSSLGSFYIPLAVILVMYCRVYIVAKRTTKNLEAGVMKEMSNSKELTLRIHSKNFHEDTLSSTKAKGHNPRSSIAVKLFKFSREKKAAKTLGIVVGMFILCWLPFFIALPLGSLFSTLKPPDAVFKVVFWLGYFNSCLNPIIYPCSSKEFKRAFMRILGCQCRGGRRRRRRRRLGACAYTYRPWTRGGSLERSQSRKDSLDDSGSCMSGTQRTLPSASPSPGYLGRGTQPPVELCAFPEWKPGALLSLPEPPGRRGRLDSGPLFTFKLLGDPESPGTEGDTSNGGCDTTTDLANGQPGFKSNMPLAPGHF

CS(=O)(=O)Nc1cccc2c1CCCC2c1c[nH]cn1.Cl (centres unmarked) [Example 8, N-[5-(1H-imidazol-4-yl)-5,6,7,8-tetrahydro-1-naphthalenyl]methanesulfonamide, Hydrochloride]
urethral pressure profile [1]: corresponding increases in the urethral pressure
melting point: 113 to 114 °C

CCS(=O)(=O)Nc1cccc(C(=C2CCCCC2)c2c[nH]cn2)c1 [Example 56]
pKi [2]: 7.79
pKi [3]: 8.61
EC50 [4]: 186000 nM
